Format in all cases: cell-based
The test system of assay [1] is Malassezia furfur (ATCC 14521). Put plainly: MIC of arabinogalactan and malic acid diester in liquid medium, 96-well plates (GLYcoDiag technology). To be noted: 48 hours at 32.5° C., about 1.30-10^4 cfu/mL per well, strain ATCC 14521. As for the experimental part: The minimum inhibitory concentration (MIC) of arabinogalactan and malic acid diester is carried out using a procedure adapted to liquid media in 96-well plates. The MIC study is conducted using GLYcoDiag technology, using the microbial strain Malassezia furfur (American Type Culture Collection (ATCC) reference 14521) as the organism. The cultures are reconstituted according to the instructions of the collection center supplying the reference strain.
Preparation of samples and test microorganisms: the products are diluted in culture medium at the concentrations defined in the table below.
Analytical controls are prepared and used identically to the sample: • a control corresponding to the microbiological medium alone; and • a control consisting of Phenoxyethanol® prepared at 5% (v/v) directly in the microbiological medium associated with each microbial strain.
In order to determine the MIC of the product, it is tested in serial dilutions of 6 dilutions directly in the culture medium intended to promote the growth of the M. furfur strain (96-well microplates). Then, each dilution point is contaminated with the test strain in an amount of about 1.30-10^4 cfu/mL per well. Finally, the tests are incubated for 48 hours at 32.5° C.±2.5° C., taking care to respect the respiratory type of the strain which is facultative aero-anaerobic. […]

Assay [2] deals with Malassezia furfur (ATCC 14521). Put plainly: MIC of cycloceramide OX100 in liquid medium, 96-well plates (GLYcoDiag technology). To be noted: 48 hours at 32.5° C., about 5.20-10^4 cfu/mL per well, strain ATCC 14521. As for the experimental part:
The determination of the minimum inhibitory concentration of cycloceramide OX100 is carried out by a procedure adapted to liquid media in 96-well plates. The MIC study is conducted using GLYcoDiag technology, using the microbial strain Malassezia furfur (American Type Culture Collection (ATCC) reference 14521) as the organism. The cultures are reconstituted according to the instructions of the collection center supplying the reference strain.
Preparation of samples and test microorganisms: OX100 cycloceramide is diluted in culture medium to the following concentrations: final concentrations in culture medium (expressed as percentages by volume): 0.25%; 0.125%; 0.0625%; 0.0312%; 0.01562%; 0.0078%.
Analytical controls are prepared and used identically to the sample: • a control corresponding to the microbiological medium alone; • a control consisting of Phenoxyethanol® prepared at 5% (v/v) directly in the microbiological medium associated with each microbial strain.
In order to determine the MIC of cycloceramide OX100, it is tested in serial dilutions of 6 dilutions directly in the culture medium intended to support the growth of the M. furfur strain (96-well microplates). Then, each dilution point is contaminated with the test strain in an amount of about 5.20-10^4 cfu/mL per well. Finally, the tests are incubated for 48 hours at 32.5° C. […]

For assay [3], the system named is Malassezia furfur (CIP 1634.86). In words: MIC in solid medium by agar dilution method. To be noted: CIP1634, strain CIP 1634.86. On the procedure:
Protocol: the minimum inhibitory concentration (MIC) of a strain of Malassezia furfur (CIP 1634.86) against cycloceramide OX100 is determined in solid medium by agar dilution method according to COURVALIN P., GOLDSTEIN F., PHILIPPON A. and SIROT J.-Fiche technique 5—L'antibiogramme, édition MPC, 1985, p. 199.

The values that follow come from patent US12544361B2, “Composition comprising at least one oxazoline for inhibiting the growth of Malassezia yeasts involved in cradle cap, in particular” (Laboratoires Expanscience, priority 2019, dated 2026).

≈ marks a conversion by molar mass, not a printed value.

With arabinogalactan, in assay [1], the MIC was 2.5 % (v/v).

`CCCCCCCCCCCC1=NC(C)(C)CO1` [OX100, 2-undecyl-4,4-dimethyl-1,3-oxazoline]: the MIC was 0.031 % (v/v) in assay [2] and 64 µg/mL (≈ 253 µM) in assay [3].

As to “di-C12-C13-alkyl malate [malic acid diester]”, the MIC in assay [1] is given as 1.25 % (v/v).
